In ChEMBL document CHEMBL1201862, “PubChem BioAssay data set” (2004):
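In this assay, cells in 96-well plates receive the compound at five concentrations for 48 hours. Endpoints are linearly interpolated between the surrounding concentrations. Here, GI50 denotes the concentration required for 50% inhibition of growth.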 The source made the active and inactive calls. Rule as the data show it: active = GI50 up to about 1.1 µM and inactive = higher.

Tests used:
Assay in all cases: growth of human tumour cells (NCI), 48 h
SF-295 = test system: SF-295
OVCAR-4 = test system: OVCAR-4
ACHN = test system: ACHN
CAKI-1 = test system: CAKI-1
IGROV-1 = test system: IGROV-1
OVCAR-8 = test system: OVCAR-8
CCRF-CEM = test system: CCRF-CEM
HL-60 = test system: HL-60
NCI-H460 = test system: NCI-H460
NCI-H522 = test system: NCI-H522
M14 = test system: M14
OVCAR-5 = test system: OVCAR-5
786-0 = test system: 786-0
TK-10 = test system: TK-10
DMS-273 = test system: DMS-273
RPMI-8226 = test system: RPMI-8226
LOX IMVI = test system: LOX IMVI
UACC-257 = test system: UACC-257

| SMILES | GI50 (SF-295) | GI50 (OVCAR-4) | GI50 (ACHN) | GI50 (CAKI-1) | GI50 (IGROV-1) | GI50 (OVCAR-8) | GI50 (CCRF-CEM) | GI50 (HL-60) | GI50 (NCI-H460) | GI50 (NCI-H522) | GI50 (M14) | GI50 (OVCAR-5) | GI50 (786-0) | GI50 (TK-10) | GI50 (DMS-273) | GI50 (RPMI-8226) | GI50 (LOX IMVI) | GI50 (UACC-257) |
| --- | --- | --- | --- | --- | --- | --- | --- | --- | --- | --- | --- | --- | --- | --- | --- | --- | --- | --- |
| O=C(Cc1nc2sc3c(c2c(=O)[nH]1)CCCC3)Nc1ccccc1 | > 100 µM (inactive) | > 100 µM (inactive) | > 100 µM (inactive) | > 100 µM (inactive) | > 100 µM (inactive) | > 100 µM (inactive) | > 100 µM (inactive) | > 100 µM (inactive) | > 100 µM (inactive) | > 100 µM (inactive) | > 100 µM (inactive) | > 100 µM (inactive) | 71.1 µM (inactive) | > 100 µM (inactive) | > 100 µM (inactive) | > 100 µM (inactive) | > 100 µM (inactive) |  |
| Cn1nc(-c2cccc(-c3nn(C)/c(=N\CCO)s3)n2)s/c1=N/CCO | > 100 µM (inactive) | > 100 µM (inactive) | > 100 µM (inactive) |  | > 100 µM (inactive) | > 100 µM (inactive) | > 100 µM (inactive) | > 100 µM (inactive) | > 100 µM (inactive) | 36.5 µM (inactive) | > 100 µM (inactive) | > 100 µM (inactive) | > 100 µM (inactive) |  | > 100 µM (inactive) | 63 µM (inactive) | > 100 µM (inactive) | > 100 µM (inactive) |
| Cc1cc(C)c2c(c1)Nc1ccccc1P2c1ccccc1 (stereo not given) | 20 µM (inactive) | 26.9 µM (inactive) | > 10 µM (inactive) | 11 µM (inactive) | 27.8 µM (inactive) | 31.6 µM (inactive) |  | 23.9 µM (inactive) | 22.3 µM (inactive) |  | 36.8 µM (inactive) |  | 36.5 µM (inactive) | 40.2 µM (inactive) | 21.7 µM (inactive) | 3.89 µM (inactive) | 27.2 µM (inactive) |  |
| CC12C3CC4C5CC(C(C53)[C@@H]1NCc1ccccc1)C42 (stereo not given in full) | > 100 µM (inactive) | > 100 µM (inactive) | > 100 µM (inactive) | 79.8 µM (inactive) | > 100 µM (inactive) | > 100 µM (inactive) | > 100 µM (inactive) | > 100 µM (inactive) | > 100 µM (inactive) | 36.2 µM (inactive) | > 100 µM (inactive) | 86.9 µM (inactive) | > 100 µM (inactive) | > 100 µM (inactive) | > 100 µM (inactive) | > 100 µM (inactive) | > 100 µM (inactive) | > 100 µM (inactive) |
| COC(=O)n1c(CBr)c(Br)c2ccccc21 | 23.7 µM (inactive) | 25.8 µM (inactive) | 18.6 µM (inactive) | 23.8 µM (inactive) | 20.9 µM (inactive) | 48.2 µM (inactive) | 23.9 µM (inactive) | 22.4 µM (inactive) | 24.3 µM (inactive) | 17.2 µM (inactive) | > 100 µM (inactive) | 30.6 µM (inactive) | 45 µM (inactive) | 33.1 µM (inactive) | 46.2 µM (inactive) | 21 µM (inactive) |  | 39.2 µM (inactive) |
| CCCCCCCCOCC(O)CO (stereo not given) | > 100 µM (inactive) | > 100 µM (inactive) | > 100 µM (inactive) | > 100 µM (inactive) | > 100 µM (inactive) | > 100 µM (inactive) | 4.52 µM (inactive) | > 100 µM (inactive) | > 100 µM (inactive) | 28 µM (inactive) | > 100 µM (inactive) | > 100 µM (inactive) | > 100 µM (inactive) | > 100 µM (inactive) | > 100 µM (inactive) | 44.6 µM (inactive) | > 100 µM (inactive) | > 100 µM (inactive) |
| NCCCCC(=O)c1cccnc1 | > 100 µM (inactive) |  |  | > 100 µM (inactive) | > 100 µM (inactive) | > 100 µM (inactive) | > 100 µM (inactive) | > 100 µM (inactive) | > 100 µM (inactive) | > 100 µM (inactive) | > 100 µM (inactive) | > 100 µM (inactive) | > 100 µM (inactive) | > 100 µM (inactive) | > 100 µM (inactive) | > 100 µM (inactive) | > 100 µM (inactive) | > 100 µM (inactive) |
| O=c1c(Cl)c(Cl)cnn1CCc1ccncc1 | 29.5 µM (inactive) | 18.6 µM (inactive) | 19.2 µM (inactive) | 1.98 µM (inactive) | 17.3 µM (inactive) | 22.1 µM (inactive) | 19.1 µM (inactive) | 21.8 µM (inactive) | 20.1 µM (inactive) |  | 16.7 µM (inactive) | 19.5 µM (inactive) | 19.6 µM (inactive) | 47.5 µM (inactive) | 18.6 µM (inactive) | 36.6 µM (inactive) | 17.8 µM (inactive) | 17.7 µM (inactive) |
| Cc1ccc(NC(=O)/C(=N/NC(=O)CC#N)C2C(=O)N(c3ccccc3)N=C2N)cc1C (stereo not given) | > 100 µM (inactive) | > 100 µM (inactive) | > 100 µM (inactive) | > 100 µM (inactive) | > 100 µM (inactive) | > 100 µM (inactive) | > 100 µM (inactive) | > 100 µM (inactive) | > 100 µM (inactive) | > 100 µM (inactive) | > 100 µM (inactive) | > 100 µM (inactive) | > 100 µM (inactive) | > 100 µM (inactive) | > 100 µM (inactive) | > 100 µM (inactive) | > 100 µM (inactive) | > 100 µM (inactive) |
| CC(C)(CN1CCCCC1)C(=O)/C=C/c1ccc(Cl)cc1 | 3.03 µM (inactive) | 4.27 µM (inactive) | 5.12 µM (inactive) |  | > 10 µM (inactive) | 2.32 µM (inactive) | 2.09 µM (inactive) | 2.15 µM (inactive) | 2.69 µM (inactive) | 2.73 µM (inactive) | 2.51 µM (inactive) | 11.4 µM (inactive) | 2.72 µM (inactive) | 15.3 µM (inactive) | 3.52 µM (inactive) | 2.94 µM (inactive) | 2.84 µM (inactive) | 6.4 µM (inactive) |
| CCCCCCCCCCCCCCCCCC(=O)OCC(C[As](=O)(O)O)OC(=O)CCCCCCCCCCCCCCCCC (stereo not given) | 32.7 µM (inactive) | > 100 µM (inactive) | 34.3 µM (inactive) | 65.5 µM (inactive) | 52.5 µM (inactive) | > 100 µM (inactive) | 39 µM (inactive) | > 100 µM (inactive) | > 100 µM (inactive) | 33.1 µM (inactive) | > 100 µM (inactive) | > 100 µM (inactive) | 27.2 µM (inactive) | 33.4 µM (inactive) | 65.3 µM (inactive) | 28.3 µM (inactive) |  | > 100 µM (inactive) |
| CC(C)C1(O)C(c2ccccc2)=C(c2ccccc2)C(c2ccccc2)=C1c1ccccc1 | 12.6 µM (inactive) | 5.73 µM (inactive) |  | 11.7 µM (inactive) | 6.15 µM (inactive) | 10.3 µM (inactive) | 5.09 µM (inactive) | 2.65 µM (inactive) | 6.95 µM (inactive) | 4.35 µM (inactive) | 6.95 µM (inactive) | 17.5 µM (inactive) | 5.78 µM (inactive) | 5.74 µM (inactive) | 4.46 µM (inactive) | 2.28 µM (inactive) | 6.59 µM (inactive) | 5.36 µM (inactive) |
| C/C(=N/NS(=O)(=O)c1ccccc1)c1cccc[n+]1[O-] | > 100 µM (inactive) | > 100 µM (inactive) | > 100 µM (inactive) | > 100 µM (inactive) | > 100 µM (inactive) | > 100 µM (inactive) | > 100 µM (inactive) | > 100 µM (inactive) | > 100 µM (inactive) | > 100 µM (inactive) | > 100 µM (inactive) | > 100 µM (inactive) | > 100 µM (inactive) | > 100 µM (inactive) | > 100 µM (inactive) | > 100 µM (inactive) |  | > 100 µM (inactive) |
| CCOC(=O)CC[C@@H](NC(=O)c1ccc(N[C@@H]2c3cc4c(cc3C(c3cc(OC)c(O)c(OC)c3)C3C(=O)OC[C@@H]32)OCO4)cc1)C(=O)OCC (stereo not given in full) | 0.0121 µM (active) |  | 0.0115 µM (active) | 0.013 µM (active) | 0.0706 µM (active) | 0.0251 µM (active) | 0.00525 µM (active) | 0.00292 µM (active) | 0.001 µM (active) | 0.0975 µM (active) | 5.24 µM (inactive) | 0.0652 µM (active) | 3.85 µM (inactive) | 0.11 µM (active) | 0.00566 µM (active) | 0.0411 µM (active) | 0.0205 µM (active) | 0.13 µM (active) |
| CC1O[C@@H]2CCCCC(=O)[C@]2(C)[C@H]1C (stereo not given in full) | > 100 µM (inactive) | > 100 µM (inactive) | > 100 µM (inactive) | > 100 µM (inactive) | > 100 µM (inactive) | > 100 µM (inactive) | > 100 µM (inactive) | > 100 µM (inactive) | > 100 µM (inactive) |  | > 100 µM (inactive) | > 100 µM (inactive) | > 100 µM (inactive) | > 100 µM (inactive) | > 100 µM (inactive) | > 100 µM (inactive) | > 100 µM (inactive) | > 100 µM (inactive) |
| C[n+]1ccc(-c2cc[n+](C)cc2)cc1 [PARAQUAT DICHLORIDE] | > 19.6 µM (inactive) | 1.55 µM (inactive) | > 26.4 µM (inactive) | > 100 µM (inactive) | 18 µM (inactive) | > 30 µM (inactive) | > 48.4 µM (inactive) | 10 µM (inactive) | 9.42 µM (inactive) |  | 13.9 µM (inactive) | 19.7 µM (inactive) | > 100 µM (inactive) | > 53.6 µM (inactive) | 10.5 µM (inactive) | > 70 µM (inactive) | > 22.9 µM (inactive) | 1.5 µM (inactive) |
